Tests used:
[1] = tested on: spontaneously hypertensive rats (SHR); experiment: depression of tail arterial blood pressure in spontaneously hypertensive rats (SHR); format: in vivo, rat; conditions: for Depression of blood pressure, SHR: injected, Means±S.D., N=11; for depress the blood pressure of hypertensive rats (conventional antihypertensive drugs): 1 mg/kg injection, N=8
Experimental: (§1) The effect on the blood pressure of spontaneously hypertensive rats (SHR) and normal rats (WKY)
(§2) The tannins obtained in the example 1 were injected into various rats respectively at different concentrations.
(§3) The data (Means±S.D.) in table 1 represents the value of the depression range of blood pressure (N=11). In comparison to conventional antihypertensive drugs, guanethidine can depress the blood pressure of hypertensive rats in a range of 28.8±7.95 mmHg (N=8) with a injection concentration of 1 mg/kg, prazosin in a range of 31.4±7.17 mmHg (N=8) and nifedipine in a range of 10.8±2.78 mmHg (N=8) at the same concentration.

[2] = tested on: normal rats (WKY); experiment: depression of tail arterial blood pressure in normal rats (WKY); format: in vivo, rat; conditions: injected, Means±S.D., N=11
Experimental: as §1, §2, §3

[3] = tested on: norepinephrine; experiment: concentration of norepinephrine in blood (plasma NE); format: in vivo, rat; conditions: injected to the veins, after ten minutes, Means ± S.D, N=6, Control 3.55 ± 0.31
Experimental: The effect on the concentration of norepinephrine in blood Four tannins were injected to the veins of various rats respectively at different concentrations. After ten minutes, the blood of the rats were sampled to determine the concentration of norepinephrine in their blood. Obviously, these compounds can reduce the concentration of norepinephrine,i.e., they can inhibit the secretion of norepinephrine and relax the adrenergic tension, and therefore the blood pressure can be reduced.

[4] = tested on: contraction of rat blood vessel (octopamine); experiment: inhibition of octopamine-induced contraction of rat blood vessel; format: in vivo; conditions: octopamine 8 × 10^-4 g/kg; dose 1 mg/kg i.v.; anesthetized normal rats; Means ± S.D.; n=8
Experimental: (§4) The effect on the contraction of rat blood vessel Norepinephrine and octopamine were injected into various anesthetized normal rats respectively, so that a contraction of rat blood vessels was induced and the blood pressure increased. […] Therefore, the tannins are potent in inhibiting the contraction of blood vessels and the effect of the tannins on the wall of blood vessel is also significant.

[5] = tested on: contraction of rat blood vessel (norepinephrine); experiment: inhibition of norepinephrine-induced contraction of rat blood vessel; format: in vivo; conditions: norepinephrine 10^-6 g/kg; dose 1 mg/kg i.v.; anesthetized normal rats; Means ± S.D.; n=8
Experimental: as §4

[6] = lethal dosage (LD50) in rats; format: in vivo; conditions: rat, in vivo
Experimental: (§5) Furthermore, the lethal dosages (LD50) for the rats were determined. The LD50 of corilagin and geraniin were greater than 100 mg/kg, and the LD50 of 6-O-galloyl-D-glucose and 1,2,3,4,6-penta-O-galloyl-D-glucose were greater than 50 mg/kg. Therefore, these four tannins can be used as a safe and effective […] drugs.

[7] = tested on: rats; experiment: lethal dosage (LD50) in rats; format: in vivo
Experimental: as §5

SMILES | Depression of blood pressure, SHR ([1]; 1 mg/kg) [mmHg] | Depression of blood pressure, SHR ([1]; 5 mg/kg) [mmHg] | Depression of blood pressure, WKY ([2]; 1 mg/kg) [mmHg] | Depression of blood pressure, WKY ([2]; 5 mg/kg) [mmHg] | Plasma NE ([3]; 1 mg/kg) [pmol/mL] | Plasma NE ([3]; 5 mg/kg) [pmol/mL] | Inhibition (%), Octopamine [4] [%] | Inhibition (%), Norepinephrine [5] [%] | LD50 [6] [mg/kg] | Plasma NE ([3]; 0.5 mg/kg) [pmol/mL] | LD50 [7] | depress the blood pressure of hypertensive rats (conventional antihypertensive drugs) [1] [mmHg]
O=C(OC[C@H]1O[C@@H](OC(=O)c2cc(O)c(O)c(O)c2)[C@H](OC(=O)c2cc(O)c(O)c(O)c2)[C@@H](OC(=O)c2cc(O)c(O)c(O)c2)[C@@H]1OC(=O)c1cc(O)c(O)c(O)c1)c1cc(O)c(O)c(O)c1 [1,2,3,4,6-penta-O-galloyl-D-glucose, 1,2,3,4,6-penta-O-galloyl-β-D-glucose] | 13.28 ± 6.22 | 29.57 ± 13.38 | 2.62 ± 2.33 | 5.74 ± 2.41 | 1.94 ± 0.19 | 1.23 ± 0.21 | 72.1 ± 14.8 | 70.6 ± 10.7 | > 50 | – | – | –
O=C(OC[C@H]1OC(O)[C@H](O)[C@@H](O)[C@@H]1O)c1cc(O)c(O)c(O)c1 (stereo partly drawn) [6-O-galloyl-D-glucose] | 17.28 ± 7.08 | 24.12 ± 9.93 | 5.81 ± 5.07 | 5.21 ± 3.48 | 2.14 ± 0.09 | 1.76 ± 0.22 | 65.3 ± 11.3 | 64.1 ± 15.1 | > 50 | – | – | –
O=C(O[C@@H]1O[C@@H]2COC(=O)c3cc(O)c(O)c(O)c3-c3c(cc(O)c(O)c3O)C(=O)O[C@H]([C@H]1O)[C@@H]2O)c1cc(O)c(O)c(O)c1 [Corilagin, corilagin] | 17.85 ± 3.38 | 26.57 ± 7.92 | 3.85 ± 2.64 | 10.85 ± 4.89 | 1.55 ± 0.19 | – | 65.5 ± 27.5 | 83.4 ± 7.3 | > 100 | 2.19 ± 0.22 | – | –
O=C1O[C@H]2[C@@H]3OC(=O)c4cc(O)c(O)c(O)c4-c4c(cc(O)c(O)c4O)C(=O)OC[C@H]2O[C@@H](OC(=O)c2cc(O)c(O)c(O)c2)[C@@H]3OC(=O)c2cc(O)c(O)c3c2[C@@H]2C1=CC(=O)[C@](O)(O3)C2(O)O [Geraniin, geraniin] | 19.28 ± 5.49 | 25.85 ± 4.18 | 3.57 ± 4.72 | 13.28 ± 6.67 | 2.17 ± 0.09 | – | 74.8 ± 13.5 | 87.1 ± 6.5 | – | 2.66 ± 0.19 | greater than 100 mg/kg | –
N=C(N)NCCN1CCCCCCC1 [guanethidine, reference compound] | – | – | – | – | – | – | – | – | – | – | – | 28.8±7.95
COC(=O)C1=C(C)NC(C)=C(C(=O)OC)C1c1ccccc1[N+](=O)[O-] [nifedipine, reference compound] | – | – | – | – | – | – | – | – | – | – | – | 10.8±2.78
COc1cc2nc(N3CCN(C(=O)c4ccco4)CC3)nc(N)c2cc1OC [prazosin, reference compound] | – | – | – | – | – | – | – | – | – | – | – | 31.4±7.17
